Drawing on PubChem BioAssay (NCI), this text covers GI50 and TGI for 42 molecules.

What is called GI50 is the concentration giving 50% growth inhibition. Broadly, the TGI is the concentration at which net growth stops.

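Protocol summary: plate cells (96-well), add compound at 5 concentrations, incubate 48 h, interpolate endpoints linearly. Abbreviation: GI50, concentration required for 50% inhibition of growth. At the TGI there is no net growth.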

This experiment deals with MDA-MB-468 breast. Briefly: DTP human tumour cell line panel, 48 h.
On to `O=C1CCC(N2Cc3c(C#CCCCNC(=O)c4cc5c(o4)C(=O)c4ccccc4C5=O)cccc3C2=O)C(=O)N1` (centres undefined), for which the GI50 was 2.13 µM and the TGI was found to be 6.25 µM.

Turning to `Cc1[nH]nc2ccc3nc(-c4ccc5[nH]ncc5c4)c4c(c3c12)CCCC4`, the GI50 was 1.02 µM and the TGI worked out at 4.38 µM.

As for `O=C1CC[C@H](c2ccc(O)c3c2C(=O)[C@@H]2O[C@@H]2C3=O)c2cccc(O)c21`, the GI50 is 1.61 µM and the TGI came out at 4.27 µM.

As for `Cc1nn(-c2ccccc2)c2nc3c(nc12)C1=NCCN1C(c1ccc(Cl)cc1)N3` (centres undefined), the GI50 is 1.65 µM and the TGI turned out to be 3.23 µM.

For the molecule `O=C(Nc1ccc(OCc2nnc(-c3ccccc3)o2)c(F)c1)Nc1ccc(Cl)c(C(F)(F)F)c1`, the GI50 was 1.9 µM and the TGI was 6.93 µM.

As for `O=C(Cc1ccccc1)NC(c1ccc(Cl)cc1)c1c(O)ccc2ccccc12` (centres undefined), the GI50 was 1.99 µM and the TGI worked out at 5.53 µM.

For `CS(=O)(=O)c1ccc(Oc2cc(F)cc(C#N)c2)c2c1[C@H](O)C(F)(F)C2`, the GI50 is more than 100 µM and the TGI was more than 100 µM.

Consider `C=CC[C@@H]1/C=C(\C)C[C@H](C)C[C@H](OC)[C@H]2O[C@@](O)(C(=O)C(=O)N3CCCC[C@H]3C(=O)O[C@H](/C(C)=C/C3CC[C@@H](O)[C@H](OC)C3)[C@H](C)[C@@H](O)CC1=O)[C@H](C)C[C@@H]2OC` (some centres undefined), for which the GI50 was 12.2 µM and the TGI is 27.3 µM.

Regarding `C/C(=C\CCc1ccsc1)CC/C=C(\C)CCCN1CCC(CO)CC1`, the GI50 is 1.48 µM and the TGI is 3.29 µM.

Turning to `COc1nc(N)nc2c1ncn2[C@@H]1O[C@H](CO)[C@@H](O)[C@@H]1O`, the GI50 is more than 100 µM and the TGI is more than 100 µM.

Regarding H-HIIKKIRTWYRKAWHVLGKV-NH2, the GI50 is 6.38 µM and the TGI is 39 µM.

Turning to `COc1cccc(Cn2c(-c3nonc3NC(C)=O)nc3ccccc32)c1`, the GI50 was 1.45 µM and the TGI worked out at 6.36 µM.

Take `C/C(=C(\c1ccc(O)cc1)c1ccc(OCCN2CCCCCC2)cc1)c1ccc(Cl)cc1`: the GI50 was 1.13 µM and the TGI amounted to 4.51 µM.

Turning to `COC1=C2C[C@@H](C)C[C@@H](OC)[C@@H](O)[C@H](C)/C=C(\C)[C@@H](OC(N)=O)[C@H](OC)/C=C\C=C(/C)C(=O)NC(=CC1=O)C2=O`, the GI50 was 0.0153 µM and the TGI was determined as 0.577 µM.

As for `CCOC(=O)c1c(Cl)c2c(n1Cc1cccc(OC)c1)-c1oncc1CC2`, the GI50 was 0.652 µM and the TGI was determined as 5.87 µM.

`O=C(CN1C(=O)S/C(=C\C(Cl)=C\c2ccccc2)C1=O)NCCc1ccc(O)cc1`: the GI50 is 1.27 µM and the TGI stood at 3.54 µM.

Regarding `O=C1/C(=C/c2ccccc2F)CN(C(=O)C(Cl)Cl)C/C1=C\c1ccccc1F`, the GI50 is 0.277 µM and the TGI was found to be 1.11 µM.

Regarding `CCN(CC)CCCC(Cc1ccccc1)Nc1c2ccc(Cl)cc2nc2ccc(OC)cc12` (centres undefined), the GI50 is 1.7 µM and the TGI was 3.67 µM.

Turning to `COc1cc(NC(=O)CSc2nc3ccccc3c(=O)n2CCc2ccccc2)cc(OC)c1OC`, the GI50 was 2.2 µM and the TGI is 7.13 µM.

Regarding `COc1ccc(-c2nn(-c3cccc(NC(=O)c4cccc(C(F)(F)F)c4)c3)cc2-c2ccncc2)cc1Cl`, the GI50 is 1.68 µM and the TGI was found to be 9.61 µM.

Consider `O=C(NCCNc1nccc(-c2c(-c3cccc(O)c3)nc3sccn23)n1)Nc1cccc(C(F)(F)F)c1`, for which the GI50 was 1.67 µM and the TGI came out at 3.33 µM.

Turning to `CC(C)n1c(=O)n(C)c2cnc3cc(F)c(-c4ccc(OCCCN5CCCCC5)nc4)cc3c21`, the GI50 is 4.98 µM and the concentration for total growth inhibition (TGI) was 26 µM.

Consider `C=C(C)[C@@H]1CC[C@]2(C(=O)O)CC[C@]3(C)[C@H](CC[C@@H]4[C@@]5(C)C/C(=C/c6ccc(OC)cc6)C(=O)C(C)(C)[C@@H]5CC[C@]43C)[C@@H]12`, for which the GI50 was 1.81 µM and the TGI was found to be 7 µM.

As for `C#C[C@]1(O)CC[C@H]2[C@@H]3CC=C4c5sc(Nc6cccc(F)c6)nc5CC[C@]4(C)[C@H]3CC[C@@]21C`, the GI50 is 1.24 µM and the TGI came out at 2.91 µM.

As for `Cc1cc2cc3cc(C)c(N)cc3[n+](C)c2cc1N`, the GI50 is 0.243 µM and the TGI was 1.3 µM.

For the molecule `CC1OC(n2c3ccccc3c3c4c(c5c6ccccc6[nH]c5c32)C(=O)N(CCN2CCOCC2)C4=O)CC(O)C1O` (centres undefined), the GI50 was 1.57 µM and the TGI came out at 4.57 µM.

In the case of `COc1ccc(-c2nc(N3CCOCC3)c3sc(CN(C)c4ncc(C(=O)NO)cn4)cc3n2)cn1`, the GI50 was less than 0.0104 µM and the TGI was determined as 0.0968 µM.

`S=C(c1ccc2c(c1)OCO2)N1CCN(c2cccc(Cl)c2)CC1`: the 50% growth inhibitory concentration (GI50) is 0.34 µM and the TGI is more than 36.8 µM.

With `CCN(CC)CCCCNc1ncc2cc(-c3cc(OC)cc(OC)c3)c(NC(=O)NC(C)(C)C)nc2n1`, the GI50 is 8.81 µM and the TGI came to 21.7 µM.

Consider `Cn1ccnc1C(=O)/C=C/c1ccc(CC(=O)Nc2ccc(F)cc2)cc1`, for which the GI50 is 1.72 µM and the TGI came to 5.8 µM.

In the case of `COc1ccc(OC)c(/C=C2\COc3ccc(O)c(O)c3C2=O)c1`, the GI50 is 1.66 µM and the TGI was found to be 5.25 µM.

Consider `N#C/C(=C1C=C/C(=N\O)C(Cl)=C\1)c1ccccc1`, for which the GI50 is 0.92 µM and the concentration for total growth inhibition (TGI) stood at 17.5 µM.

Regarding `O=S(=O)(CCNCc1ccc(-c2ccc3ncnc(Nc4ccc(OCc5cccc(F)c5)c(Cl)c4)c3c2)o1)c1ccccc1`, the GI50 was 0.217 µM and the TGI was found to be 7.79 µM.

As for `Cc1cc(C)c2nc3nc(C)cc(C)c3c(N)c2c1`, the GI50 was 3.61 µM and the concentration for total growth inhibition (TGI) amounted to 14.9 µM.

Take `CC1(C)N=C(N)N=C(N)N1c1cccc(CCCCOc2ccccc2)c1`: the GI50 is 0.0775 µM and the concentration for total growth inhibition (TGI) was found to be 4.08 µM.

For the molecule `O=C(NCCNc1nccc(-c2c(-c3ccc(F)cc3)nc3sccn23)n1)c1ccccc1`, the GI50 is 4.48 µM and the TGI came out at 44.5 µM.

Turning to `N=c1n(Cc2ccccc2)c(N)cc(=O)n1Cc1ccccc1`, the GI50 was 4.82 µM and the total growth inhibition concentration (TGI) is 21.2 µM.

Consider `COc1ccc2cc(Cn3cc[n+](Cc4ccc5ccccc5c4)c3)ccc2c1`, for which the GI50 is 0.487 µM and the TGI was found to be 2.57 µM.

With `CCn1c(-c2nonc2N)nc2cncc(C(=O)NCCNC)c21`, the GI50 is 1.9 µM and the TGI is 14.6 µM.

Regarding `COc1ccc(CCN2CCC(Nc3nc4ccccc4n3Cc3ccc(F)cc3)CC2)cc1`, the GI50 was 1.15 µM and the TGI worked out at 2.44 µM.

Regarding `Clc1ccc(C2=NN[C@H](c3cn(-c4ccccc4)nc3-c3ccccc3)C2)cc1`, the GI50 is 4.22 µM and the concentration for total growth inhibition (TGI) was found to be 18.2 µM.

As for `COc1cc(C2CC(c3ccccc3)=NN2C(C)=O)cc(OC)c1OC` (centres undefined), the GI50 is 3.34 µM and the TGI is 37.1 µM.
